Reference: patent US20010049372A1, “Antiviral nucleoside analogues” (BioChem Pharma Inc., priority 1998, published 2001)
Like-named read-outs stand apart in the source and are kept apart here.

Columns and labels:
[1] = test system: 105/A (wt); assay: Drug-resistant clinical isolates in PBMCs (p24); format: cell-based, HIV-1; conditions: Human immunodeficiency virus 1, PBMC
Procedure: (§1) ANTIVIRAL ASSAYS. The anti-HIV-1 activity of the compound A (−) were assessed by employing HIV-1IIIB in a variety of cell types as previously described (Gu et al., 1992, 1994, 1999; Rando et al., 1995; Salomon et al., 1994). Briefly, cells were incubated with virus at a multiplicity of infection (MOI) of 0.005 for T cell assays and an MOI of 0.5 for monocytic cell assays for 3 hrs. Unbound virus was then removed by washing the cells, followed by seeding the cells into a 96-well plate. The infected cells were cultured in the presence of a serial concentrations of the test compound for 5-7 days. The anti-HIV-1 efficacy was determined by testing for HIV-1 RT activity or p24 level in the cell culture supernatants. All assays were performed in duplicate. Zidovudine and/or lamivudine were used as controls in each experiment.
(§2) Clinical strains were isolated from PBMCs of HIV-1 infected individuals through co-culture with PBMCs from normal dornors. To determine the RT genotype of the HIV-1 clinical isolates, the proviral DNA was extracted from infected CD4^+ T-cells or PBMCs and the complete RT coding regions were amplified by PCR as previously reported (Gu et al 1992). The PCR product was purified and then directly sequenced using primer RTS (5′-CCAAAAGTTAAACAATGGC-3′) which is located at the 5′ portion of the RT coding region (nucleotide 2603-2621 of HXB2-D coordinates). Antiviral activity was evaluated as described in example 10.

[2] = test system: CCR15 (Lamivudine^R); assay: Drug-resistant clinical isolates in PBMCs (p24); format: cell-based, HIV-1; conditions: Human immunodeficiency virus 1, PBMC
Procedure: as §1, §2

[3] = test system: CCR18 (Lamivudine^R); assay: Drug-resistant clinical isolates in PBMCs (p24); format: cell-based, HIV-1; conditions: Human immunodeficiency virus 1, PBMC
Procedure: as §1, §2

[4] = test system: 105/F (zidovudine^R); assay: Drug-resistant clinical isolates in PBMCs (p24); format: cell-based, HIV-1; conditions: Human immunodeficiency virus 1, PBMC
Procedure: as §1, §2

[5] = test system: CCR19 (Lamivudine^R); assay: Drug-resistant clinical isolates in PBMCs (p24); format: cell-based, HIV-1; conditions: Human immunodeficiency virus 1, PBMC
Procedure: as §1, §2

[6] = test system: HIV-1IIIB; assay: Anti-HIV-1 antiviral assay with HIV-1IIIB in various cell types (RT activity); format: cell-based
Procedure: as §1
Activity of the compound A (−) against HIV-1 in various cells. Anti-HIV-1 activity of the compound A (−) were tested in different types of cells, including human peripheral […] cells (PBMCs), T-cell (MT-2 and MT-4) and monocytic cell (U937) lines. The compound A (−) had submicromolar EC50s against HIV-1IIIB in different types of cells tested (Table 2).

[7] = Cellular toxicity by WST-1 staining; format: cell-based; conditions: human, CBMCs, Table 4, day 7, read-out: CC50 (μM) WST-1 CBMC
Procedure: (§3) The cellular toxicity of the compounds were assessed on various cells using [^3H]-thymidine uptake. Various cells, including Molt-4, HT1080, DU-145, HepG-2 and HSF, were plated at a concentration of 1-2×10^3 cells per well (96 well plates). After a 24 hr incubation period, 10-fold serial diluted compounds (b 10^−4 M to 10^−10 M) were added to the culture medium and the cells were further incubated for 72 hrs. [^3H]-thymidine was added during the final 18 hr incubation period. After incubation with the [^3H]-thymidine, the cells were washed once with PBS, treated with trypsin if the cells were adherent, and then resuspended in water (hypotonic lysing of cells). The cellular extract was applied directly to a Tomtec Harvester 96. Using this instrument the extracted DNA is adsorbed onto filters, washed and the incorporated [^3H]-thymidine is then counted. The 50% cytotoxic concentration (CC50) was determined by comparing the radioactive counts per minute of the samples in the presence of the compounds against the control. The cellular toxicity of the compounds was also tested by WST-1 staining through assessing proliferation of MT-2, H9, Jurkat, U937, and CBMCs. The established cell lines were cultured in RPMI medium in 96-well plates at a density of 5×10^4 cells/well while CBMCs were plated at a concentration of 0.5×10^6/well. A 10-fold serial diluted (10^−4-10^−7 M) compound was added at day zero. At day 4, the cells were passaged by changing half medium containing appropriately diluted compound. The cell activities were assessed at day 7 using the WST-1 reagent (Boehringer Mannheim) following the protocol provided by the supplier.
In the WST-1 staining experiments, cell lines were cultured in RPMI medium in 96-well plates at a density of 5×10^4 cells/well. CBMCs were plated at a concentration of 0.5×10^6/well. Compounds (10^−4-10^−7 M) were added at day zero. Cell viability was assessed on day 7 using the WST-1 reagent (Boehringer Mannheim) following the protocol provided by the supplier.

[8] = Cellular toxicity by [3H]-thymidine uptake; format: cell-based, human; conditions: human, Table 14, PHA-stimulated PBMCs, read-out: CC50 (μM) [^3H]TTP incorporation in: PBMC
Procedure: (§4) Cellular toxicity was assessed by [^3H]thymidine uptake (de Muys et al. 1999) and WST-1 staining. In the [^3H]thymidine uptake experiments, Molt-4, HT1080, DU-145, HepG2 and HSF, were plated at a concentration of 1-2×10^3 cells per well (96 well plates). PHA-stimulated PBMCs were cultured at a concentration of 4×10^4 cells per well. Following a 24 hr pre-incubation period, test compounds (10^−4 M to 10^−10 M) were added and the cells were incubated for an additional 72 hrs. [^3H]thymidine was added during the final 18 hr incubation period. The cells were then washed once with PBS, treated with trypsin if the cells were adherent, and resuspended in water (hypotonic lysing of cells). The cellular extract was applied directly to a Tomtec Harvester 96. The 50% cytotoxic concentration (CC50) was determined by comparing the radioactive counts per minute obtained from drug-tested samples to those obtained from the control (untreated) cells.

[9] = test system: PBMCs; assay: Cellular toxicity by [3H]-thymidine uptake; format: cell-based, human; conditions: Table 4; 72 hrs
Procedure: as §4

[10] = Cellular toxicity by [3H]-thymidine uptake; format: cell-based; conditions: human
Procedure: as §3, §4

[11] = test system: NNRTI^R; assay: Recombinant drug resistant HIV-1 variants (RT activity); format: cell-based; conditions: Human immunodeficiency virus 1
Procedure: as §1
(§5) Recombinant HIV-1 variants were prepared by introducing the designed mutations into HXB2-D by site-directed mutagenesis as described (Gu et al. 1992, 1994). The virus stocks were prepared by transfecting MT-4 cells with infectious viral DNA constructs. Antiviral activity of the compound A (−) was evaluated as described in example 10.

[12] = test system: HXB2-D (wt); assay: Recombinant HIV-1 variants (RT activity); format: cell-based; conditions: Human immunodeficiency virus 1, HXB2
Procedure: as §1, §5

[13] = test system: PI^R; assay: Recombinant drug resistant HIV-1 variants (RT activity); format: cell-based; conditions: Human immunodeficiency virus 1
Procedure: as §1, §5

[14] = Human immunodeficiency virus 1, MT2, HIV-1IIIB, MT-2 cells, determined by RT activity, read-out: EC50 (μM) ± S.D. in MT-2 cells

Compound	IC50 [1] [nM]	IC50 [2] [nM]	IC50 [3] [nM]	IC50 [4] [nM]	IC50 [5] [nM]	EC50 [6, 14] [µM]	also measured
Nc1nc(NC2CC2)c2ncn([C@H]3C=C[C@@H](CO)C3)c2n1 [Abacavir, abacavir]	< 30	220	1300	70	580	0.1	
Nc1ncnc2c1ncn2CCOCP(=O)(O)O [Adefovir, adefovir]	2000	800	2100	7000	2300		
Cc1cn([C@H]2C=C[C@@H](CO)O2)c(=O)[nH]c1=O [Stavudine, stavudine]	63	60	49	120	50		EC50 ([6]; Human immunodeficiency virus 1, MT2, read-out: EC50 (μM) ± S.D. in MT-2 cells): 0.38 ± 0.26 µM
Nc1ccn([C@H]2CC[C@@H](CO)O2)c(=O)n1 [Zalcitabine, zalcitabine]						0.05	CC50 at 7 days [7]: 29 µM; CC50 at 72 h [8]: 35.5 µM; CC50 (μM) [^3H-]TTP incorporation in: PBMC [9]: 50/15; CC50 at 72 h ([10]; DU-145 cells, Table 4, read-out: CC50 (μM) [^3H-]TTP incorporation in: U-145): 5 µM; CC50 at 72 h ([10]; DU-145 cells, Table 14, read-out: CC50 (μM) [^3H]TTP incorporation in: U145): 3.5 µM; CC50 at 72 h ([10]; HSF cells, Table 14, read-out: CC50 (μM) [^3H]TTP incorporation in: HSF): 2 µM; CC50 at 72 h ([10]; HT1080 cells, Table 4, read-out: CC50 (μM) [^3H-]TTP incorporation in: HT1080): 2 µM; CC50 at 72 h ([10]; HT1080 cells, Table 14, read-out: CC50 (μM) [^3H]TTP incorporation in: HT800): 2.5 µM; CC50 at 72 h ([10]; HepG2 cells, Table 4, read-out: CC50 (μM) [^3H-]TTP incorporation in: HepG2): 7 µM; CC50 at 72 h ([10]; HepG2 cells, Table 14, read-out: CC50 (μM) [^3H]TTP incorporation in: HepG2): 6.5 µM; CC50 at 72 h ([10]; Molt-4 cells, Table 4, read-out: CC50 (μM) [^3H-]TTP incorporation in: Molt-4): 2 µM; CC50 at 72 h ([10]; Molt-4 cells, Table 14, read-out: CC50 (μM) [^3H]TTP incorporation in: Molt4): 1 µM
Cc1ccnc2c1NC(=O)c1cccnc1N2C1CC1 [nevirapine]							EC50 [11]: > 10000 nM
CC(C)(C)NC(=O)[C@@H]1C[C@@H]2CCCC[C@@H]2CN1C[C@@H](O)[C@H](Cc1ccccc1)NC(=O)[C@H](CC(N)=O)NC(=O)c1ccc2ccccc2n1 [saquinavir]							EC50 [12]: 1.5 nM; EC50 [13]: 28 nM
